Experimental data taken from US8796289B2 (AbbVie Inc., priority 2011, dated 2014).

Target: GST-tagged-Wee1 kinase (Homo sapiens, UniProt P30291)
Test: Wee1 time-resolved fluorescence equilibrium binding assay (displacement of Oregon Green-labeled ATP-competitive kinase probe)
Method: Wee1 kinase was assayed using a time-resolved fluorescence equilibrium binding assay monitoring displacement of a rapidly reversible Oregon Green-labeled ATP-competitive kinase probe (N-(2-(2-(2-(4-(4-(5-chloro-4-(2-(1-hydroxycyclobutyl)thiazol-5-yl)-1H-pyrrolo[2,3-b]pyridin-2-yl)phenyl)piperazin-1-yl)ethoxy)ethoxy)ethyl)-2′,7′-difluoro-3′,6′-dihydroxy-3-oxo-3H-spiro[isobenzofuran-1,9′-xanthene]-5-carboxamide) by competitive Wee1 inhibitors.

Chain of GST-tagged-Wee1 kinase (P30291 whole entry): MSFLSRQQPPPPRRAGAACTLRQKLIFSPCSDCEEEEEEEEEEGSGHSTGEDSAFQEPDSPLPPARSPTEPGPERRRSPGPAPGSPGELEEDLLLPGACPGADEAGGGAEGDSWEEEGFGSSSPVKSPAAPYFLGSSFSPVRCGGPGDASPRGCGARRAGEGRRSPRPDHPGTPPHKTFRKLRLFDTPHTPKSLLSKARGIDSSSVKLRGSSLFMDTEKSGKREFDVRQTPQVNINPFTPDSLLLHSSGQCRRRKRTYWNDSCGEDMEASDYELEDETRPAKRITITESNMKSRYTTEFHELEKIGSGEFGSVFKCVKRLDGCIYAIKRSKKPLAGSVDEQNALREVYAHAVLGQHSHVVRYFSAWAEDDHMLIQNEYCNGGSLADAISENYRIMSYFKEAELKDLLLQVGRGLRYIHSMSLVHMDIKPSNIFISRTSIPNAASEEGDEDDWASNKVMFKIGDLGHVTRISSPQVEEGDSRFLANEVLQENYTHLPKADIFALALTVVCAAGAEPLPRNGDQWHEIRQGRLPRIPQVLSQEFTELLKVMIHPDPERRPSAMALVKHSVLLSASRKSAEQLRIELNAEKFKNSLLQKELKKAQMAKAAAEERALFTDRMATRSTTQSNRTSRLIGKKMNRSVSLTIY

SMILES	Ki
CN1Cc2cc(Nc3ncc4c(=O)n(-c5c(Cl)cccc5Cl)nc(CO)c4n3)ccc2C2(CC2)C1 [Example 432, 6-(2,6-dichlorophenyl)-8-(hydroxymethyl)-2-[(2′-methyl-2′,3′-dihydro-1′H-spiro[cyclopropane-1,4′-isoquinolin]-7′-yl)amino]pyrimido[4,5-d]pyridazin-5(6H)-one]	200 pM
O=c1c2cnc(Nc3ccc4c(c3)CNCC43CC3)nc2c(CO)nn1-c1c(Cl)cccc1Cl [Example 433, 6-(2,6-dichlorophenyl)-2-(2′,3′-dihydro-1′H-spiro[cyclopropane-1,4′-isoquinolin]-7′-ylamino)-8-(hydroxymethyl)pyrimido[4,5-d]pyridazin-5(6H)-one]	150 pM
Cc1nn(-c2c(Cl)cccc2Cl)c(=O)c2cnc(Nc3ccc4c(c3)CCN(C)C4)nc12 [Example 435, 6-(2,6-dichlorophenyl)-8-methyl-2-[(2-methyl-1,2,3,4-tetrahydroisoquinolin-6-yl)amino]pyrimido[4,5-d]pyridazin-5(6H)-one]	460 pM
Cc1nn(-c2c(Cl)cccc2Cl)c(=O)c2cnc(Nc3ccc4c(c3)CN(S(N)(=O)=O)CC43CC3)nc12 [Example 436, 7′-{[6-(2,6-dichlorophenyl)-8-methyl-5-oxo-5,6-dihydropyrimido[4,5-d]pyridazin-2-yl]amino}-1′H-spiro[cyclopropane-1,4′-isoquinoline]-2′(3′H)-sulfonamide]	650 pM
Cc1nn(-c2c(Cl)cccc2Cl)c(=O)c2cnc(Nc3ccc4c(c3)CCN(C(=O)C(C)(C)O)C4)nc12 [Example 437, 6-(2,6-dichlorophenyl)-2-{[2-(2-hydroxy-2-methylpropanoyl)-1,2,3,4-tetrahydroisoquinolin-6-yl]amino}-8-methylpyrimido[4,5-d]pyridazin-5(6H)-one]	800 pM
Cc1nn(-c2c(Cl)cccc2Cl)c(=O)c2cnc(Nc3ccc4c(c3)CNCC4(C)C)nc12 [Example 438, 6-(2,6-dichlorophenyl)-2-[(4,4-dimethyl-1,2,3,4-tetrahydroisoquinolin-7-yl)amino]-8-methylpyrimido[4,5-d]pyridazin-5(6H)-one]	180 pM
CC(=O)N1Cc2cc(Nc3ncc4c(=O)n(-c5c(Cl)cccc5Cl)nc(C)c4n3)ccc2C(C)(C)C1 [Example 439, 2-[(2-acetyl-4,4-dimethyl-1,2,3,4-tetrahydroisoquinolin-7-yl)amino]-6-(2,6-dichlorophenyl)-8-methylpyrimido[4,5-d]pyridazin-5(6H)-one]	690 pM
Cc1nn(-c2c(Cl)cccc2Cl)c(=O)c2cnc(Nc3ccc4c(c3)CN(C(=O)C3CC3)CC4(C)C)nc12 [Example 440, 2-{[2-(cyclopropylcarbonyl)-4,4-dimethyl-1,2,3,4-tetrahydroisoquinolin-7-yl]amino}-6-(2,6-dichlorophenyl)-8-methylpyrimido[4,5-d]pyridazin-5(6H)-one]	820 pM
Cc1nn(-c2c(Cl)cccc2Cl)c(=O)c2cnc(Nc3ccc4c(c3)CN(S(C)(=O)=O)CC4(C)C)nc12 [Example 441, 6-(2,6-dichlorophenyl)-2-{[4,4-dimethyl-2-(methylsulfonyl)-1,2,3,4-tetrahydroisoquinolin-7-yl]amino}-8-methylpyrimido[4,5-d]pyridazin-5(6H)-one]	720 pM
Cc1nn(-c2c(Cl)cccc2Cl)c(=O)c2cnc(Nc3ccc(N4CCNC(=O)C4)cc3)nc12 [Example 442, 6-(2,6-dichlorophenyl)-8-methyl-2-{[4-(3-oxopiperazin-1-yl)phenyl]amino}pyrimido[4,5-d]pyridazin-5(6H)-one]	460 pM
Cc1nn(-c2c(Cl)cccc2Cl)c(=O)c2cnc(Nc3ccc4c(c3)C(C)(C)N(C)CC4)nc12 [Example 443, 6-(2,6-dichlorophenyl)-8-methyl-2-[(1,1,2-trimethyl-1,2,3,4-tetrahydroisoquinolin-7-yl)amino]pyrimido[4,5-d]pyridazin-5(6H)-one]	300 pM
Cc1nn(-c2c(Cl)cccc2Cl)c(=O)c2cnc(Nc3ccc4c(c3)C(C)(C)NCC4)nc12 [Example 444, 6-(2,6-dichlorophenyl)-2-[(1,1-dimethyl-1,2,3,4-tetrahydroisoquinolin-7-yl)amino]-8-methylpyrimido[4,5-d]pyridazin-5(6H)-one]	160 pM
Cc1nn(-c2c(Cl)cccc2Cl)c(=O)c2cnc(Nc3ccc(N4CCN(C5COC5)CC4)cc3)nc12 [Example 445, 6-(2,6-dichlorophenyl)-8-methyl-2-({4-[4-(oxetan-3-yl)piperazin-1-yl]phenyl}amino)pyrimido[4,5-d]pyridazin-5(6H)-one]	330 pM
Cc1nn(-c2c(Cl)cccc2Cl)c(=O)c2cnc(Nc3ccc(N4CC5CNCC5C4)cc3)nc12 (stereo not drawn) [Example 446, 6-(2,6-dichlorophenyl)-2-{[4-(hexahydropyrrolo[3,4-c]pyrrol-2(1H)-yl)phenyl]amino}-8-methylpyrimido[4,5-d]pyridazin-5(6H)-one]	270 pM
Cc1nn(-c2c(Cl)cncc2Cl)c(=O)c2cnc(Nc3ccc4c(c3)CNCC43CC3)nc12 [Example 447, 6-(3,5-dichloropyridin-4-yl)-2-(2′,3′-dihydro-1′H-spiro[cyclopropane-1,4′-isoquinolin]-7′-ylamino)-8-methylpyrimido[4,5-d]pyridazin-5(6H)-one]	400 pM
Cc1nn(-c2c(Cl)cncc2Cl)c(=O)c2cnc(Nc3ccc4c(c3)CCNC4)nc12 [Example 448, 6-(3,5-dichloropyridin-4-yl)-8-methyl-2-(1,2,3,4-tetrahydroisoquinolin-6-ylamino)pyrimido[4,5-d]pyridazin-5(6H)-one]	500 pM
CC(=O)N1CCc2cc(Nc3ncc4c(=O)n(-c5c(Cl)cccc5Cl)nc(C)c4n3)ccc2C1 [Example 449, 2-[(2-acetyl-1,2,3,4-tetrahydroisoquinolin-6-yl)amino]-6-(2,6-dichlorophenyl)-8-methylpyrimido[4,5-d]pyridazin-5(6H)-one]	550 pM
Cc1nn(-c2c(Cl)cccc2Cl)c(=O)c2cnc(Nc3ccc4c(c3)CCN(S(C)(=O)=O)C4)nc12 [Example 450, 6-(2,6-dichlorophenyl)-8-methyl-2-{[2-(methylsulfonyl)-1,2,3,4-tetrahydroisoquinolin-6-yl]amino}pyrimido[4,5-d]pyridazin-5(6H)-one]	610 pM
Cc1nn(-c2c(Cl)cccc2Cl)c(=O)c2cnc(Nc3ccc4c(c3)CNC4)nc12 [Example 451, 6-(2,6-dichlorophenyl)-2-(2,3-dihydro-1H-isoindol-5-ylamino)-8-methylpyrimido[4,5-d]pyridazin-5(6H)-one]	190 pM
Cc1nn(-c2c(Cl)cccc2Cl)c(=O)c2cnc(Nc3ccc4c(c3)CCNC4(C)C)nc12 [Example 452, 6-(2,6-dichlorophenyl)-2-[(1,1-dimethyl-1,2,3,4-tetrahydroisoquinolin-6-yl)amino]-8-methylpyrimido[4,5-d]pyridazin-5(6H)-one]	160 pM
Cc1nn(-c2c(Cl)cccc2Cl)c(=O)c2cnc(Nc3ccc4c(c3)CCN(C)C4(C)C)nc12 [Example 453, 6-(2,6-dichlorophenyl)-8-methyl-2-[(1,1,2-trimethyl-1,2,3,4-tetrahydroisoquinolin-6-yl)amino]pyrimido[4,5-d]pyridazin-5(6H)-one]	360 pM
Cc1nn(-c2c(Cl)cccc2Cl)c(=O)c2cnc(Nc3ccc(CN4CCN(C)CC4)cc3)nc12 [Example 454, 6-(2,6-dichlorophenyl)-8-methyl-2-({4-[(4-methylpiperazin-1-yl)methyl]phenyl}amino)pyrimido[4,5-d]pyridazin-5(6H)-one]	1200 pM
Cc1nn(-c2c(Cl)cccc2Cl)c(=O)c2cnc(Nc3ccc(C4CCCN4)cc3)nc12 (stereo not drawn) [Example 455, 6-(2,6-dichlorophenyl)-8-methyl-2-{[4-(pyrrolidin-2-yl)phenyl]amino}pyrimido[4,5-d]pyridazin-5(6H)-one]	500 pM
Cc1nn(-c2c(Cl)cccc2Cl)c(=O)c2cnc(Nc3ccc(C4CCN(C)CC4)cc3)nc12 [Example 456, 6-(2,6-dichlorophenyl)-8-methyl-2-{[4-(1-methylpiperidin-4-yl)phenyl]amino}pyrimido[4,5-d]pyridazin-5(6H)-one]	500 pM
Cc1nn(-c2c(Cl)cccc2Cl)c(=O)c2cnc(Nc3ccc(N4C[C@H]5C[C@@H]4CN5)cc3)nc12 [Example 457, 2-({4-[(1R,4R)-2,5-diazabicyclo[2.2.1]hept-2-yl]phenyl}amino)-6-(2,6-dichlorophenyl)-8-methylpyrimido[4,5-d]pyridazin-5(6H)-one]	280 pM
Cc1nn(-c2c(Cl)cccc2Cl)c(=O)c2cnc(Nc3ccc(C4CCNCC4)cc3)nc12 [Example 458, 6-(2,6-dichlorophenyl)-8-methyl-2-{[4-(piperidin-4-yl)phenyl]amino}pyrimido[4,5-d]pyridazin-5(6H)-one]	230 pM
Cc1nn(-c2c(Cl)cccc2Cl)c(=O)c2cnc(Nc3ccc(C4CCCNC4)cc3)nc12 (stereo not drawn) [Example 459, 6-(2,6-dichlorophenyl)-8-methyl-2-{[4-(piperidin-3-yl)phenyl]amino}pyrimido[4,5-d]pyridazin-5(6H)-one]	170 pM
CCc1nn(-c2c(Cl)cccc2Cl)c(=O)c2cnc(Nc3ccc4c(c3)CCN(C)C4(C)C)nc12 [Example 460, 6-(2,6-dichlorophenyl)-8-ethyl-2-[(1,1,2-trimethyl-1,2,3,4-tetrahydroisoquinolin-6-yl)amino]pyrimido[4,5-d]pyridazin-5(6H)-one]	320 pM
CCc1nn(-c2c(Cl)cccc2Cl)c(=O)c2cnc(Nc3ccc4c(c3)C(C)(C)N(C)CC4)nc12 [Example 461, 6-(2,6-dichlorophenyl)-8-ethyl-2-[(1,1,2-trimethyl-1,2,3,4-tetrahydroisoquinolin-7-yl)amino]pyrimido[4,5-d]pyridazin-5(6H)-one]	680 pM
CCc1nn(-c2c(Cl)cccc2Cl)c(=O)c2cnc(Nc3ccc4c(c3)CNCC4(C)C)nc12 [Example 462, 6-(2,6-dichlorophenyl)-2-[(4,4-dimethyl-1,2,3,4-tetrahydroisoquinolin-7-yl)amino]-8-ethylpyrimido[4,5-d]pyridazin-5(6H)-one]	950 pM
